Measurements: EP1222242B1, “CLEANING AGENTS WHICH CONTAIN SURFACTANTS AND ENZYME INHIBITORS” (Henkel Kommanditgesellschaft auf Aktien, priority 1999, dated 2001)
“Also recorded” adds a separate entry of the source. Where a SMILES comes first, the peptide text is derived from it. The star is where a group is joined. Cbz = O=C(OCc1ccccc1)*

Tests used:
[1] = tested on: Desquamation des Stratum corneum; experiment: Desquamation test on human skin biopsies (detergent-induced corneocyte shedding, corneocyte count); format: cell-based; conditions: for Desquamation der Humanhaut (Korneozyten-Abschuppung): result in words over the tested concentration range
Text: Aus frischen Humanhautexplantaten (aus Mammareduktion) wurden 8mm^2-große Hautstücke ausgestanzt und mit einer Mischung aus Detergentien (Na-Dodecylsulfat, N,N-Dimethyldodecylaminoxid) in Abwesenheit und in Gegenwart der Inhibitoren behandelt. Unter dem Einfluß der Detergentien wird eine verstärkte Abschuppung (Desquamation) der Homschicht (Stratum corneum) künstlich induziert, also die Ausbildung trockener Haut im Versuch nachgeahmt. Die Anzahl abgeschuppter Hornzellen (Korneozyten) wurde unter dem Mikroskop in einer Schilling-Zählkammer bestimmt. Eine Verringerung der Korneozytenzahl weist auf eine hemmende Wirkung der getesteten potentiellen Inhibitoren hin.
Die Inhibitoren wurden in den entsprechenden Konzentrationen (vgl. Tabellen der Beispiele 7-12) im Inkubationspuffer angesetzt. Dieser bestand aus 0,1 M TRIS-HCl-Puffer (pH 8) mit 0,1 Gew.% Na-Azid und den Detergenzien Na-Dodecylsulfat (0,2 mM) und N,N-Dimethyldodecylaminoxid (8 mM) sowie EDTA (5 mM). Diese Inkubationspufferlösungen mit variierender Konzentration des Inhibitors werden nachfolgend als Testlösungen bezeichnet.
Es wurden zwei Arten von Blindkontrollen durchgeführt, eine Positiv- und eine Negativkontrolle. Für die sogenannte Positivkontrolle wurde nur der Inkubationspuffer verwendet, d. h. ohne Zusatz der Inhibitoren. Für die sogenannte Negativkontrolle wurde eine 5 mM Lösung von EDTA in TRIS-HCl-Puffer eingesetzt, d. h. ohne Zusatz der Detergentien.
Pro Reaktionsansatz wurden 0,5 mL der jeweiligen Testlösung oder des für die Blindkontrollen verwendeten Puffergemisches in verschließbaren Reaktionsgefäßen vorgelegt. Alle Ansätze wurden in vierfacher Ausfertigung durchgeführt, um die Reproduzierbarkeit der Ergebnisse zu gewährleisten.
Die Humanhaut wurde nach der Explantation in einer trockenen, sterilen Petrischale auf Kühlakkus transportiert. Nach Entfernung des Unterhautfett- und des Bindegewebes wurden mit Hilfe von sterilen Stanzen 8 mm^2-große Hautstücke präpariert. Diese wurden 15-20 min in steriler, physiologischer NaCl (0,9 %) gewaschen, zu den Reaktionsansätzen gegeben (1 Hautstück/Reaktionsansatz) und 44 Stunden bei 37° C inkubiert.
Nach Beendigung der Inkubationsphase wurden die Reaktionsgefäße 30 Sekunden auf einem Vortex-Mixer geschüttelt, um noch lose anhaftende Komeozyten von den Hautstücken abzulösen. Die Hautstücke wurden entnommen und die verbleibende Dispersion wurde 8 Minuten bei 11.000U/min zentrifugiert, um die Korneozyten zu isolieren. Der detergenshaltige Überstand (0,4 mL) wurde verworfen und der Rückstand mit 0,4 ml Aqua dest. gewaschen. Nach nochmaligem Zentrifugieren wurde der Überstand (0.4 mL) wiederum verworfen, das verbleibende Zellpellet in 0,4 mL Aqua dest. aufgenommen und die abgelösten Korneozyten in einer Schillingzählkammer unter einem Lichtmikroskop ausgezählt.
Nachfolgende Tabellen geben eine Zusammenstellung über die Anzahl abgelöster Korneozyten: • nach Behandlung der Haut-Biopsien mit einem Detergentiengemisch in Abwesenheit der Inhibitoren (Positivkontrolle) • nach Behandlung der Haut-Biopsien mit einer Pufferlösung in Abwesenheit der Detergentien und Inhibitoren (Negativkontrolle) • nach Behandlung der Haut-Biopsien mit einem Detergentiengemisch, welches die Inhibitoren in variierender Konzentration enthält.

Chymotrypsin = biological target: T1, Chymotrypsin (Bos taurus, UniProt P00766); experiment: Chymotrypsin enzyme activity test (BTEE substrate, absorbance at 256 nm); format: biochemical, Rind; conditions: for Hemmung von Chymotrypsin: result in words over the tested concentration range
T1 construct: Chymotrypsin entsteht im Pankreas aus inaktiven Vorstufen, sogenannten Zymogenen, durch Einwirkung von Trypsin; purchased Sigma; host or cells: bovine pancreas (Rinderpankreas)
Text: (§1) Da die hauteigenen, am Desmosomenabbau beteiligten Proteasen nicht in ausreichender Menge zur Verfügung standen, dienten die Serin-Proteasen Trypsin und Chymotrypsin (Sigma) aus Rinderpankreas als Modellenzym, um die Hemmwirkung des erfindungsgemäß verwendeten Inhibitors N-CBZ-Gly-Pro-Phe-Pro-Leu, zu testen. Als Vergleich wurde auch das als t-PA-Inhibitor (tissue-type plasminogen activator) bekannte t-AMCHA [trans-4(Aminomethyl)-cyclohexancarbonsäure] getestet.
Der Nachweis der Chymotrypsin-Enzymaktivität erfolgt mit einer Modifikation analog zu den Angaben im Sigma Quality Control Test Procedure-Datenblatt für Chymotrypsin. Bei Ansätzen ohne Inhibitor wurden 1,42 mL Reagens A (80 mM Tris/HCl-Puffer, pH = 7,8; 25°C) zum Testansatz zugegeben. Bei Ansätzen mit Inhibitor wurden 1,32 mL Reagens A zum Testansatz zugegeben sowie 0,1 mL einer Lösung des entsprechenden Inhibitors in Reagens A (Konzentrationsreihe). Die Enzymaktivität wurde durch Umsetzung des Substrates N-Benzoyl-L-Tyrosinethylester (BTEE) zu N-Benzoyl-L-Tyrosin und Ethanol spektrophotometrisch bestimmt. Die Absorption des proteolytisch abgespaltenen N-Benzoyl-L-Tyrosins wird bei 256 nm gemessen.
(§2) Die Reaktionskinetiken wurden je 5 Minuten bei 25 °C detektiert, wobei der lineare Anstieg der Absorption (A) pro Zeiteinheit (t) ein Maß für die Aktivität des Enzyms (ΔA/Δt) ist. Die Aktivität des Enzyms in Abwesenheit eines Proteinase-Inhibitors, (ΔA1/Δt1 ), wurde auf 100% gesetzt. Unter analogen Bedingungen wurden die Aktivitäten in Gegenwart eines Inhibitors (ΔA2/Δt2) bestimmt. Die Hemmwirkung oder Minderung der Enzymaktivität entspricht dann: 100% - (ΔA2/Δt2 )/( ΔA1/Δt1)%.

Trypsin = biological target: T2, Trypsin (Bos taurus, UniProt P00760); experiment: Trypsin enzyme activity test (BAPNA substrate, absorbance at 405 nm); format: biochemical, Rind; conditions: for Hemmung von Trypsin: result in words over the tested concentration range
T2 construct: aus der vom Pankreas gebildeten Vorstufe Trypsinogen durch Abspaltung eines Hexapeptids entsteht; purchased Sigma; host or cells: bovine pancreas (Rinderpankreas)
T2 sequence (P00760 24-246): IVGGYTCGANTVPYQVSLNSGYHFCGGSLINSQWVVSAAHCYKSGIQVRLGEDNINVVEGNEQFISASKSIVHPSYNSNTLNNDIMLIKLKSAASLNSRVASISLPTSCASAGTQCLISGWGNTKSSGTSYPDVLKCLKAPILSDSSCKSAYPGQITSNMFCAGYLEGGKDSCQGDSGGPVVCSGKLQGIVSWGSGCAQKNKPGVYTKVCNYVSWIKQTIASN
Text: as §1
Auch der Nachweis der Trypsin-Enzymaktivität erfolgt mit einer Modifikation analog zu den Angaben im Sigma Quality Control Test Procedure-Datenblatt für Trypsin. Anstelle von Aprotinin (Reagens F) wurden hier die erfindungsgemäßen Inhibitoren eingesetzt. Hierfür wurde eine Konzentrationsreihe der Inhibitoren in Reagens E angesetzt. Die Enzymaktivität wurde durch Umsetzung des Substrates Nα-Benzoyl-DL-Arginin-p-Nitroanilin (BAPNA) zu Nα-Benzoyl-DL-Arginin und p-Nitroanilin spektrophotometrisch bestimmt. Die Absorption des proteolytisch abgespaltenen p-Nitroanilins wird bei 405 nm gemessen.
as §2

[2] = inhibitor 0,1 % (w/v), corneocyte count, positive control = 100 %, 44 h, 37° C
[3] = inhibitor 0,5 % (w/v), corneocyte count, positive control = 100 %, 44 h, 37° C
[4] = inhibitor concentration 0,03 % (w/v), 25 °C
[5] = Homo sapiens, pH 8, inhibitor 0,1 % (w/v), corneocyte count, positive control = 100 %, 44 h, 37° C, read-out: Desquamation an Humanhaut ex vivo
[6] = inhibitor concentration 0,01 % (w/v), 25 °C
[7] = inhibitor concentration 0,05 % (w/v), 25 °C
[8] = inhibitor concentration 0,001 % (w/v), 25 °C
[9] = inhibitor concentration 0,005 % (w/v), 25 °C
[10] = Homo sapiens, pH 8, inhibitor 0,5 % (w/v), corneocyte count, positive control = 100 %, 44 h, 37° C, read-out: Desquamation an Humanhaut ex vivo
[11] = Homo sapiens, pH 8, inhibitor 1,0 % (w/v), corneocyte count, positive control = 100 %, 44 h, 37° C, read-out: Desquamation an Humanhaut ex vivo
[12] = inhibitor concentration 0,1 % (w/v), 25 °C
[13] = inhibitor concentration 0,5 % (w/v), 25 °C

Hemmwirkung (Minderung der Chymotrypsin-Aktivität) (Chymotrypsin; [6]) | Hemmwirkung (Minderung der Chymotrypsin-Aktivität) (Chymotrypsin; [8]) | Hemmwirkung (Minderung der Trypsin-Aktivität) (Trypsin; [6]) | Hemmwirkung (Minderung der Chymotrypsin-Aktivität) (Chymotrypsin; [12]) | Molecule | Desquamation an Humanhaut ex vivo [1, 2] | Desquamation an Humanhaut ex vivo [1, 3] | Desquamation der Humanhaut (Korneozyten-Abschuppung) [1] | Hemmung von Chymotrypsin (Chymotrypsin) | Hemmung von Trypsin (Trypsin) | activity at 0.1 % [1, 5] | Hemmwirkung (Minderung der Chymotrypsin-Aktivität) (Chymotrypsin; [7]) | Hemmwirkung (Minderung der Trypsin-Aktivität) (Trypsin; [8]) | activity at 0.5 % [1, 10] | activity at 1 % [1, 11] | further results
 |  |  |  | CC(C)CC(NC(=O)C1CCCN1C(=O)C(Cc1ccccc1)NC(=O)C1CCCN1C(=O)CNC(=O)OCc1ccccc1)C(=O)O (stereo not drawn) [N-CBZ-GPFPL, N-CBZ-Gly-Pro-Phe-Pro-Leu] (Cbz-GPFPL-OH; configuration not given here) | 93% | 51% | signifikant reduziert | spezifische Hemmung | nicht beeinträchtigt |  |  |  |  |  | Reduktion der Abschuppung (Desquamation der Haut) ([1]; inhibitor 0,5 %, result in words): um die Hälfte reduziert; inhibition at 0.06 % (Chymotrypsin; 5 min, pH 7.8, inhibitor concentration 0,06 % (w/v), 25 °C, read-out: Hemmwirkung (Minderung der Chymotrypsin-Aktivität)): 7%; inhibition at 0.33 % (Chymotrypsin; 5 min, pH 7.8, inhibitor concentration 0,33 % (w/v), 25 °C, read-out: Hemmwirkung (Minderung der Chymotrypsin-Aktivität)): 27%; Hemmwirkung (Minderung der Chymotrypsin-Aktivität) (Chymotrypsin; [4]): 2%; Hemmwirkung (Minderung der Trypsin-Aktivität) (Trypsin; [4]): keine Hemmwirkung messbar; Hemmwirkung (Minderung der Trypsin-Aktivität) (Trypsin; inhibitor concentration 0,06 % (w/v), 25 °C): -"-; Hemmwirkung (Minderung der Trypsin-Aktivität) (Trypsin; inhibitor concentration 0,33 % (w/v), 25 °C): -"-
 |  |  |  | NCCc1ccc(S(=O)(=O)F)cc1 [Pefabloc® SC, 4-(2-Aminoethyl)phenylsulfonylfluorid] | 34% | 11% |  | starke, konzentrationsabhängige Hemmung | starke, konzentrationsabhängige Hemmung |  |  |  |  |  | Abschuppung reduziert um ([1]; inhibitor 0,5 %, reduction versus positive control): ~90%; Hemmung von Chymotrypsin (Chymotrypsin; listed as Pefabloc®): effektiver Inhibitor; Hemmung von Trypsin (Trypsin; listed as Pefabloc®): effektiver Inhibitor
 | keine Hemmwirkung messbar | 61% |  | O=C(/C=C/c1ccc(O)c(O)c1)O[C@H](Cc1ccc(O)c(O)c1)C(=O)O [Rosmarinsäure] |  |  | konzentrationsabhängige Reduktion; also recorded: signifikant reduziert | gering | starke, konzentrationsabhängige Hemmung | 82.5% |  |  | 60% | 33.8% | Desquamation an Humanhaut ex vivo ([1]; inhibitor 1,0 % (w/v), corneocyte count, positive control = 100 %, 44 h, 37° C): 33,8%; Hemmwirkung (Minderung der Chymotrypsin-Aktivität) (Chymotrypsin; [9]): 2%; Hemmwirkung (Minderung der Chymotrypsin-Aktivität) (Chymotrypsin; inhibitor concentration 0,0075 % (w/v), 25 °C): 7%
keine Hemmwirkung messbar |  | 9% | - " - | NC[C@H]1CC[C@H](C(=O)O)CC1 [t-AMCHA, trans-4(Aminomethyl)-cyclohexancarbonsäure] |  |  | Desquamationsinhibitor mit konzentrationsabhängigem Profil; also recorded: signifikant reduziert | nicht beeinträchtigt | in Abhängigkeit von der Inhibitor-Konzentration beeinträchtigt |  | - " - |  | 51.3% | 44% | activity at 2.5 % ([1]; Homo sapiens, pH 8, inhibitor 2,5 % (w/v), corneocyte count, positive control = 100 %, 44 h, 37° C, read-out: Desquamation an Humanhaut ex vivo): 37.1%; Hemmwirkung (Minderung der Chymotrypsin-Aktivität) (Chymotrypsin; [13]): - " -; Hemmwirkung (Minderung der Chymotrypsin-Aktivität) (Chymotrypsin; inhibitor concentration 1,0 % (w/v), 25 °C): - " -; inhibition at 0.1 % (Trypsin; 5 min, inhibitor concentration 0,1 % (w/v), 25 °C, read-out: Hemmwirkung (Minderung der Trypsin-Aktivität)): 51%; inhibition at 0.05 % (Trypsin; 5 min, inhibitor concentration 0,05 % (w/v), 25 °C, read-out: Hemmwirkung (Minderung der Trypsin-Aktivität)): 36%; inhibition at 0.5 % (Trypsin; 5 min, inhibitor concentration 0,5 % (w/v), 25 °C, read-out: Hemmwirkung (Minderung der Trypsin-Aktivität)): 85%; inhibition at 1 % (Trypsin; 5 min, inhibitor concentration 1,0 % (w/v), 25 °C, read-out: Hemmwirkung (Minderung der Trypsin-Aktivität)): 93%
keine Hemmwirkung meßbar | keine Hemmwirkung meßbar | Keine Hemmwirkung meßbar | 23% | Borsäure | 50% |  | signifikant reduziert | schwache Hemmung; also recorded: nur schwach | schwache Hemmung; also recorded: nur schwach |  |  | Keine Hemmwirkung meßbar |  |  | Desquamation an Humanhaut ex vivo ([1]; inhibitor 0,01 % (w/v), corneocyte count, positive control = 100 %, 44 h, 37° C): 86%; Desquamation an Humanhaut ex vivo ([1]; inhibitor 0,2 % (w/v), corneocyte count, positive control = 100 %, 44 h, 37° C): 47%; Reduktion der Abschuppung der Korneozyten ([1]; inhibitor 0,2 %, result in words): halbieren; Hemmwirkung (Minderung der Trypsin-Aktivität) (Trypsin; [12]): 6%; Hemmwirkung (Minderung der Trypsin-Aktivität) (Trypsin; [13]): 23%

Molecule | Hemmwirkung (Minderung der Chymotrypsin-Aktivität) (Chymotrypsin; [6]) | Hemmwirkung (Minderung der Chymotrypsin-Aktivität) (Chymotrypsin; [8]) | Hemmwirkung (Minderung der Trypsin-Aktivität) (Trypsin; [6]) | Hemmwirkung (Minderung der Chymotrypsin-Aktivität) (Chymotrypsin; [12]) | Desquamation an Humanhaut ex vivo [1, 2] | Desquamation an Humanhaut ex vivo [1, 3] | Desquamation der Humanhaut (Korneozyten-Abschuppung) [1] | Hemmung von Chymotrypsin (Chymotrypsin) | Hemmung von Trypsin (Trypsin) | activity at 0.1 % [1, 5] | Hemmwirkung (Minderung der Chymotrypsin-Aktivität) (Chymotrypsin; [7]) | Hemmwirkung (Minderung der Trypsin-Aktivität) (Trypsin; [8]) | activity at 0.5 % [1, 10] | activity at 1 % [1, 11] | further results
OB(O)c1ccccc1 [Phenylboronsäure] | 9% | keine Hemmung meßbar | Keine Hemmung meßbar |  |  |  | signifikant reduziert | deutliche, konzentrationsabhängige Hemmung | nur mäßig beeinträchtigt | 60% | 45% | Keine Hemmung meßbar |  |  | activity at 0.05 % ([1]; Homo sapiens, pH 8, inhibitor 0,05 % (w/v), corneocyte count, positive control = 100 %, 44 h, 37° C, read-out: Desquamation an Humanhaut ex vivo): 89%; Reduktion der Abschuppung der Korneozyten ([1]; inhibitor 0,1 %, result in words): siginifikant reduzieren; Hemmwirkung (Minderung der Trypsin-Aktivität) (Trypsin; [7]): 5%; Hemmwirkung (Minderung der Trypsin-Aktivität) (Trypsin; [9]): Keine Hemmung meßbar
